In patent publication US20240150315A1, “BETA-2 ADRENORECEPTOR MODULATORS AND METHODS OF USING SAME” (University of Maryland, Baltimore, priority 2022, published 2024):
“Also recorded” adds a separate entry of the source.

Tests used:
[1] = system: murine precision-cut lung slices; assay: bronchodilation of methacholine-contracted murine precision-cut lung slices; parameters: species or system FVB mice expressing human β2AR in smooth muscle; details: for effect on ISO-induced increase in airway lumen area (bronchodilation): 100 nM compound, methacholine 1 μM
Experimental: (§1) To further examine the effect of PAMs and NAMs on β-agonists-mediated regulation of bronchorelaxation in a physiologically-relevant model, human and murine precision-cut lung slices were used. […] Lung slices were treated with increasing concentrations of ISO plus either vehicle or 100 nM of compounds 1001, 1002, and 1003, and a change in airway lumen area was determined.
(§2) FVB mice expressing human β2AR in smooth muscle were used in this study. The protocol for animal experiments is approved by the Institutional Animal Care and Use Committee. Murine lungs were perfused with 4% low melting agarose, allowed to solidify at 4° C. for 1 h. For human airways, a small lobe was inflated with 2% low-melting-point agarose and cores of 8 mm in diameter were made. Both human and murine lungs were then sliced (˜250 μm thick) using an oscillating tissue slicer (OTS-5000, FHC Inc). Lung slices cultured for 48 h were treated with methacholine (MCh, 1 μM), and images of the airways were obtained before and 10 min after MCh stimulation using EVOS FL Auto (Life technologies, Waltham, MA) microscope. The lung slices were treated with ISO (1 nM-10 μM) with vehicle or AMs and images of the airways were captured at 10 min intervals for a total of 50 min. Images of airways were used to calculate the area of airways using Image J software (NIH). Data from lung slice experiments were plotted as a percentage of methacholine-induced decrease in airway area compared to baseline area.

[2] = system: human precision-cut lung slices; assay: bronchodilation of methacholine-contracted human precision-cut lung slices; details: for effect on ISO-induced increase in airway lumen area (bronchodilation): 100 nM compound, methacholine 1 μM
Experimental: as §1, §2

[3] = system: human ASM cells; assay: collagen gel contraction assay with human ASM cells, histamine-induced contraction; assay type: cell-based; details: 10 μM histamine; for effect on ISO-mediated inhibition of histamine-induced contraction of human ASM cells: AMs 100 nM, 10 min pretreatment
From the text: β-agonists are the drug of choice for management of acute bronchoconstriction in asthmatics, acting on the target ASM cells. The Gs-cAMP-protein kinase A signaling axis effected by β-agonists inhibits contraction of ASM cells via multiple mechanisms. Therefore, it was examined whether the modulation of this signaling pathway by the discovered PAM/NAMs translated into functional differences in β2AR control of ASM contraction. In a standard gel-contraction assay, the collagen gels containing human ASM cells were incubated with different concentrations of ISO with vehicle or 100 nM AMs for 10 min, followed by stimulation with 10 μM histamine. The gel images were obtained before and after treatment with different agonists using an EVOS microscope, and a change in the gel area was calculated. Treatment with 10 μM histamine decreased the area of the gels, consistent with contraction of ASM cells. Pretreatment of gels with ISO inhibited the histamine-induced decrease in gel area (FIG. 14A).
100 μl of ASM cell suspension (5×10^5 cells/ml) containing type-I rat tail collagen (1.5 mg/ml) in F-12 medium was seeded onto a 96-well plate. After 24 h, collagen gels were loosened from the plate. The contraction was initiated by adding histamine (10 μM), with or without pretreatment with increasing concentration of ISO, with vehicle or AMs for 10 min prior to histamine. Images were obtained using an EVOS live tissue microscope before and at 10 min intervals for 40 min after the addition of histamine. Gel area was obtained for each of the mages using NIH ImageJ software. Data were expressed as percentage gel contraction and calculated using the following equation. [(T0 gel area−T10 gel area)/T0 gel area×100%].

[4] = system: β2AR; assay: cell surface ELISA of β2AR expression (receptor internalization) in HEK293 cells; assay type: cell-based, human; details: 15 min; for effect on ISO-induced loss of cell surface expression of wild-type or mutant β2AR: AMs 100 nM with ISO 100 nM
Experimental: ISO induced receptor internalization was assessed via cell surface ELISA as previously described. Briefly, HEK-293 cells expressing β2AR were plated on 24-well plates. Cells were treated with 100 nM ISO with vehicle or 100 nM AMs for 15 minutes. Post treatment, cells were washed and fixed with 10% formalin-buffered saline for 10 minutes on ice, washed twice, and further processed using horseradish peroxidase-conjugated chicken polyclonal anti-HA antibody (Abcam). Cells were washed and incubated with 3,3′,5,5′-tetramethylbenzidine substrate and transferred to a 96-well plate containing sulfuric acid to stop the colorimetric reaction. FlexStation3 was used to measure absorbance at 450 nm. All values were normalized to basal value (no ISO/AMs) of wild-type receptor.

[5] = molecular target: T1, β2AR (Homo sapiens, UniProt P07550); assay: β-arrestin2 recruitment to the β2AR, BRET assay in HEK293 cells; assay type: cell-based; details: AMs 100 nM, increasing concentrations of ISO
T1 construct: expressed in transfected cells; host or cells: HEK293
Experimental: In addition to the canonical Gs signaling, the “balanced” b-agonists induce β-arrestin recruitment to the β2AR resulting in β2AR desensitization and activation of non-canonical signaling such as ERK1/2 signaling. […] Furthermore, the effect of AMs on ISO-induced phosphorylation of ERK1/2 was tested.
β-agonist-induced recruitment of β-arrestin to the β2AR was assessed by BRET assay as described previously. HEK293 cells were transfected with pcDNA-β-arrestin2-GFP10 and pcDNA3-β2AR-RlucII and after 48 h the cells were treated with increasing concentration of ISO and vehicle or 100 nM PAMs or NAMs followed by the addition of Coelenterazine 400a for 20 mins. Change in BRET was measured using a Tecan Infinite F500 microplate reader. BRET ratios were calculated by dividing the intensity of light emitted by the GFP10 acceptor by the total light emitted by the RLucII donor.

[6] = system: mice; assay: in vivo bronchodilation after MCh-induced bronchoconstriction by flexiVent; details: aerosol ISO with compound vs vehicle after MCh
Experimental: Compound 1001 augments isoproterenol (ISO)-induced bronchodilation in mice. Change in methacholine (MCh)-induced bronchoconstriction (lung resistance) upon aerosol treatment of mice with MCh followed by aerosol treatment of mice with ISO with vehicle or compound 1001 using flexiVent (Scireq) method was assessed.
In vivo lung function measurements. Lung mechanics are studied using flexiVent (Scireq) method. Briefly, anesthetized, intubated mice are ventilated with a tidal volume of 250 μl at 150 breaths/min. Mouse airways are exposed to increasing doses of methacholine (MCh; 1.56-50 mg/ml) using an in-line ultrasonic nebulizer. Following MCh-induced bronchoconstriction, mice are aerosolized with increasing concentrations of β-agonists (0.1-20 mg/ml)+AMs (100 nM). Airway resistance (Rn), tissue damping (G), and elastance (H) data (normalized to body weight) at individual doses of agonists are determined using the flexiWare software.

[7] = molecular target: T2, human wild type β2AR (Homo sapiens, UniProt P07550); assay: ISO-induced cAMP accumulation (ELISA) in HEK293 cells overexpressing human wild type β2AR; assay type: cell-based; details: AMs 100 nM, different concentrations of ISO
T2 construct: host or cells: HEK293
From the text: Activation of β2AR by orthosteric ligands leads to activation of Gαs subunit, which in turn activates AC to hydrolyze ATP to produce cAMP. To determine the biological activity of the AMs of the β2AR, HEK293 cells overexpressing human wild type β2AR were stimulated with different concentrations of test compounds and evaluated for cAMP production using a cAMP ELISA. […] These compounds were used in subsequent studies.
HEK293 cell lines were obtained from the American Type Culture Collection (ATCC) and maintained in Dulbecco's modified Eagle's medium (DMEM) as described previously.
The human β2AR cDNA containing 3-HA tag at N-terminus subcloned into a pcDNA3.1 was obtained from www.cdna.org. […] Mutations were confirmed by DNA sequencing. HEK293 cells were transfected with cDNA expressing (wild type or mutant; see below) human β2AR using Lipofectamine 3000 (Invitrogen, Waltham, MA) and used for studies within 36-48 h, or were maintained in media containing G418 at 500 μg/ml concentration.
(§3) Cells were grown to full confluency in 24-well plates, serum-starved for 24 h, and then incubated with 1 mM IBMX for 10 min. Cells were then incubated with ISO (1 nM to 10 μM) or β2AR modulators alone or concomitantly for 10 min and cAMP levels were measured by ELISA (Life Technologies, Waltham, MA) as described previously.

[8] = system: R131K, R131A, Y219F, Y219S, Y219A, F282Y, F282W, and F282A mutant β2ARs; assay: ISO-induced cAMP generation in HEK293 cells expressing mutant β2AR; assay type: cell-based, human; details: AMs 100 nM, compared with wild-type β2AR
Experimental: To validate the identity of the computationally identified allosteric site, β2AR containing R131K, R131A, Y219F, Y219S, Y219A, F282Y, F282W, and F282A mutations was generated (FIG. 11A). Wild-type and mutant β2AR were expressed in HEK293 cells, and ISO-induced cAMP generation was measured in the presence or absence of the PAM compound 1001, or NAM compounds 1002 and 1003 (FIGS. 11B-E). The compounds were also tested at different concentrations of ISO in the cells expressing mutant β2AR (FIGS. 12A-D). The cAMP response was enhanced in cells expressing R131A and diminished in F282A mutant β2AR compared to cells expressing wild-type β2AR. […] Further, as expected, compound 1001 enhanced ISO-induced cAMP generation in cells expressing wild-type β2AR, and this effect was abolished in cells expressing mutant β2AR (FIGS. 11C-E, FIGS. 12B-D). Furthermore, NAM compounds 1002 and 1003 inhibited ISO-induced cAMP generation in wild-type β2AR expressing cells, and this inhibition was attenuated in cells expressing R131K, R131A, Y219F, Y219S, Y219A, F282Y, F282W, and F282A mutant β2ARs (FIGS. 11C-E, FIGS. 12B-D).
The human β2AR cDNA containing 3-HA tag at N-terminus subcloned into a pcDNA3.1 was obtained from www.cdna.org. Binding site residues PHE(F)282, TYR(Y)219, and ARG(R)131 were mutated to different amino acids using the QuikChange 11 XL Site-Directed Mutagenesis Kit (Agilent, Santa Clara, CA) per manufacturer's protocol. Mutations were confirmed by DNA sequencing. HEK293 cells were transfected with cDNA expressing (wild type or mutant; see below) human β2AR using Lipofectamine 3000 (Invitrogen, Waltham, MA) and used for studies within 36-48 h, or were maintained in media containing G418 at 500 μg/ml concentration. […]
as §3

T1 sequence (P07550 whole entry): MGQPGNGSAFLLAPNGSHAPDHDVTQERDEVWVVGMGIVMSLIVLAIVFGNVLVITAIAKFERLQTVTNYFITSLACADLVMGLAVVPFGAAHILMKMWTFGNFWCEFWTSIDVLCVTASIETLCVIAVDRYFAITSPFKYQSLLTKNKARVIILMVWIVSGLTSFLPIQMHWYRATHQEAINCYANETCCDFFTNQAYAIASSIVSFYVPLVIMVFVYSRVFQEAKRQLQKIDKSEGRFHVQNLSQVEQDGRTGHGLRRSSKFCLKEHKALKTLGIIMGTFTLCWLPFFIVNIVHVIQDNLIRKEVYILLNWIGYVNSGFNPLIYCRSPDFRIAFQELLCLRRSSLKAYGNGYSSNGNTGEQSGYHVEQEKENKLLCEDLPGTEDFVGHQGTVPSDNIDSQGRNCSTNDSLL
T2 sequence (P07550 whole entry): as above

For `CC(C)NCC(O)c1ccc(O)c(O)c1` (centres unmarked) [ISO, isoproterenol, reference compound], the “airway lumen area (bronchodilation)” value ([1]; ISO alone) was “dose-dependent increase”, the “airway lumen area (bronchodilation)” value ([2]; ISO alone) was “dose-dependent increase” and the “histamine-induced decrease in gel area” value ([3]; ISO pretreatment alone) was “inhibited”. For the same compound, the “cell surface expression of the β2AR” value ([4]; ISO 100 nM alone) was “loss of cell surface expression”.

In the case of `OCCC1CN(Cc2ccccn2)CCN1C1CCCC1` (centres unmarked) [compound 1001], the “effect on ISO-induced increase in airway lumen area (bronchodilation)” value (“effect on ISO-induced increase” for short) [1] was “significantly enhanced”, the “effect on ISO-induced β-arrestin2 recruitment to the β2AR (change in BRET)” value (“effect … (change in BRET)” for short) [5] was “did not alter” and the “effect on ISO-induced increase” value [2] was “significantly enhanced”. For the same compound, the “effect on ISO-mediated inhibition of histamine-induced contraction of human ASM cells” value (“effect on ISO-mediated inhibition” below) [3] was “significantly enhanced”, the “effect on ISO-induced bronchodilation (lung resistance)” value [6] was “augments” and the “effect on ISO-induced loss of cell surface expression of wild-type or mutant β2AR” value (“effect on ISO-induced loss” for short) [4] was “did not affect”. For the same compound, the “effect on ISO-induced cAMP accumulation” value [7] was “most effective PAM; also recorded: enhanced” and the “effect of the modulator on ISO-induced cAMP generation in cells expressing mutant β2AR” value (“effect of the modulator” for short) [8] was “abolished”.

`Cc1nc2ccccc2nc1CN1CCN(C2CCCCC2)C(CCO)C1` (centres unmarked) [compound 1002] was tested, and the “effect on ISO-induced increase” value [1] was “mitigated”, the “effect … (change in BRET)” value [5] was “did not alter” and the “effect on ISO-induced increase” value [2] was “mitigated”. For the same compound, the “effect on ISO-mediated inhibition” value [3] was “either slightly reduced or had no effect”, the “effect on ISO-induced loss” value [4] was “did not affect” and the “effect on ISO-induced cAMP accumulation” value [7] was “most effective NAMs; also recorded: inhibited”. The “effect of the modulator” value [8] was “attenuated”.

With `Cc1cnn(-c2cc(N/N=C/c3ccccc3O)ncn2)c1` [compound 1003] the “effect on ISO-induced increase” value [1] was “mitigated”, the “effect … (change in BRET)” value [5] was “did not alter” and the “effect on ISO-induced increase” value [2] was “mitigated”. For the same compound, the “effect on ISO-mediated inhibition” value [3] was “either slightly reduced or had no effect”, the “effect on ISO-induced loss” value [4] was “did not affect” and the “effect on ISO-induced cAMP accumulation” value [7] was “most effective NAMs; also recorded: inhibited”. For the same compound, the “effect of the modulator” value [8] was “attenuated”.
